What was measured:
[1] = biological target: T1, TrkB (Homo sapiens, UniProt Q16620); assay: TrkB fluorescence polarization kinase assay; format: biochemical; details: 50 nM TrkB, 150 uM ATP, 30 minutes; uncertainty ±10%
T1 construct: purchased Upstate 14-507M
Procedure: The compounds of the present invention are also specific inhibitors of TrkB. Selection of preferred compounds of Formula I for use as TrkB inhibitors was performed in the following manner. The TrkB assay utilized the fluorescein-labeled phosphopeptide and the anti-phosphotyrosine antibody included in the Panvera Phospho-Tyrosine Kinase Kit (Green) supplied by Invitrogen. When TrkB phosphorylated poly Glu4Tyr, the fluorescein-labeled phosphopeptide was displaced from the anti-phosphotyrosine antibody by the phosphorylated poly Glu4Tyr, thus decreasing the FP value. The TrkB kinase reaction was incubated at room temperature for 30 minutes under the following conditions: 50 nM TrkB (Upstate, catalog # 14-507M), 20 ug/mL poly Glu4Tyr, 150 uM ATP, 5 mM MgCl2, 1% compound in DMSO. The kinase reaction was stopped with the addition of EDTA. The fluorescein-labeled phosphopeptide and the anti-phosphotyrosine antibody were added and incubated for 30 minutes at room temperature. Data points were an average of triplicate samples.

[2] = biological target: T2, isolated kinase domain of the human c-kit receptor (Homo sapiens, UniProt P10721); assay: c-Kit fluorescence polarization kinase assay; format: biochemical; details: 1 nM c-kit, 50 uM ATP, 45 minutes; uncertainty ±10%
T2 construct: isolated kinase domain of the human c-kit receptor; purchased ProQinase lot SP005
Procedure: The compounds of the present invention are also specific inhibitors of c-Kit. Selection of preferred compounds of Formula I for use as c-Kit inhibitors was performed in the following manner using an in vitro kinase assay to measure inhibition of the isolated kinase domain of the human c-kit receptor in a fluorescence polarization (FP) protocol. The c-kit assay utilized the fluorescein-labeled phosphopeptide and the anti-phosphotyrosine antibody included in the Panvera Phospho-Tyrosine Kinase Kit (Green) supplied by Invitrogen. When c-kit phosphorylated the poly Glu4Tyr, the fluorescein-labeled phosphopeptide was displaced from the anti-phosphotyrosine antibody by the phosphorylated poly Glu4Tyr, thus decreasing the FP value. The c-kit kinase reaction was incubated at room temperature for 45 minutes under the following conditions: 1 nM c-kit (ProQinase, lot SP005), 100 ug/mL poly Glu4Tyr, 50 uM ATP, 5 mM MgCl2, 1 mM DTT, 0.01% Tween-20, 1% DMSO or compound in […], pH 7.5. The kinase reaction was stopped with the addition of EDTA. The fluorescein-labeled phosphopeptide and the anti-phosphotyrosine antibody were added and incubated for 30 minutes at room temperature and fluorescence polarization was read. Data points were an average of triplicate samples.

T1 sequence (Q16620 526-822 limits assumed): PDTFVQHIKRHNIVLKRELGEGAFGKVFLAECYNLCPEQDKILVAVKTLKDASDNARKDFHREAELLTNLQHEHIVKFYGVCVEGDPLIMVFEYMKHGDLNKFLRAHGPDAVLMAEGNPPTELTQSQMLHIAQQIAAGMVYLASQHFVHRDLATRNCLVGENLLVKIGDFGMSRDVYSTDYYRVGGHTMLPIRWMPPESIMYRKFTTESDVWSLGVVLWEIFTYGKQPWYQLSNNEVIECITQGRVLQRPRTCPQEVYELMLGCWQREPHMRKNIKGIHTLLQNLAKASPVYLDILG
T2 sequence (P10721 589-937 limits assumed): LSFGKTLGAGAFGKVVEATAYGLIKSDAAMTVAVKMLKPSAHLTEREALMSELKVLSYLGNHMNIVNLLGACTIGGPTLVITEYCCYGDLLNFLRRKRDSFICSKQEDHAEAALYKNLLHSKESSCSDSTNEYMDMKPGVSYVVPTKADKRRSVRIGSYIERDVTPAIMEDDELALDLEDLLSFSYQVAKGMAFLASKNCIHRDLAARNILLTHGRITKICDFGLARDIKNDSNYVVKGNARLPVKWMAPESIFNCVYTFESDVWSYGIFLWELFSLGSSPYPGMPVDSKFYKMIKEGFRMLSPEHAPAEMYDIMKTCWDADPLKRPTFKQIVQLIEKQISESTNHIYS

| Compound | IC50 [1] [µM] | IC50 [2] [µM] |
| --- | --- | --- |
| CC(C)Oc1ccc(NC(=O)N2CCN(c3ncnc(N)c3/C=N/OCCCO)CC2)cc1 [Example 3, 4-{6-Amino-5-[(3-hydroxy-propoxyimino)-methyl]-pyrimidin-4-yl}-piperazine-1-carboxylic acid (4-isopropoxy-phenyl)-amide] | 1.3 |  |
| CO/N=C/c1c(N)ncnc1N1CCN(C(=O)Cc2ccc(C(C)C)cc2)CC1 [Example 7, 4-Amino-6-{4-[2-(4-isopropyl-phenyl)-acetyl]-piperazin-1-yl}-pyrimidine-5-carbaldehyde O-methyl-oxime] | 0.5 |  |
| CO/N=C/c1c(N)ncnc1N1CCN(C(=O)Nc2ccc(OC3CCC3)nc2)CC1 [Example 6, 4-[6-Amino-5-(methoxyimino-methyl)-pyrimidin-4-yl]-piperazine-1-carboxylic acid (6-cyclobutoxy-pyridin-3-yl)-amide] | 3.5 |  |
| CCO/N=C/c1c(N)ncnc1N1CCN(C(=O)Nc2ccc(OC(C)C)cc2)CC1 [Example 9, 4-[6-Amino-5-(ethoxyimino-methyl)-pyrimidin-4-yl]-piperazine-1-carboxylic acid (4-isopropoxy-phenyl)-amide (anti-configuration for —C═N—O—)] | 0.6 |  |
| CO/N=C/c1c(N)ncnc1N1CCN(C(=O)Nc2ccc(N3CCCCC3)cc2)CC1 [Example 4, 4-[6-Amino-5-(methoxyimino-methyl)-pyrimidin-4-yl]-piperazine-1-carboxylic acid (4-piperidin-1-yl-phenyl)-amide] | 4 |  |
| CC(C)Oc1ccc(NC(=O)N2CCN(c3ncnc(N)c3/C=N/OCCN3CCOCC3)CC2)cc1 [Example 2, 4-{6-Amino-5-[(2-morpholin-4-yl-ethoxyimino)-methyl]-pyrimidin-4-yl}-piperazine-1-carboxylic acid (4-isopropoxy-phenyl)-amide] | 10.1 | 0.026 |
| CO/N=C/c1c(N)ncnc1N1CCN(C(=O)Nc2ccc(OC(C)C)cc2)CC1 [Example 1, 4-[6-Amino-5-(methoxyimino-methyl)-pyrimidin-4-yl]-piperazine-1-carboxylic acid (4-isopropoxy-phenyl)-amide] | 0.8 | 0.0105 |
| CO/N=C/c1c(N)ncnc1N1CCN(C(=O)Nc2ccc(N3CCOCC3)cc2)CC1 [Example 5, 4-[6-Amino-5-(methoxyimino-methyl)-pyrimidin-4-yl]-piperazine-1-carboxylic acid (4-morpholin-4-yl-phenyl)-amide] | 8.4 |  |
| CCO/N=C/c1c(N)ncnc1N1CCN(C(=O)Nc2ccc(OC3CCC3)nc2)CC1 [Example 12, 4-[6-Amino-5-(ethoxyimino-methyl)-pyrimidin-4-yl]-piperazine-1-carboxylic acid (6-cyclobutoxy-pyridin-3-yl)-amide] | 1.6 |  |
| CO/N=C/c1c(N)ncnc1N1CCN(C(=O)Nc2ccc(C(C)C)cc2)CC1 [Example 8, 4-[6-Amino-5-(methoxyimino-methyl)-pyrimidin-4-yl]-piperazine-1-carboxylic acid (4-isopropyl-phenyl)-amide] | 1.1 |  |

More lines, now with the values ahead:

| IC50 [1] [µM] | IC50 [2] [µM] | Compound |
| --- | --- | --- |
| 2.2 |  | CCO/N=C/c1c(N)ncnc1N1CCN(C(=O)Cc2ccc(C(C)C)cc2)CC1 [Example 13, 4-Amino-6-{4-[2-(4-isopropyl-phenyl)-acetyl]-piperazin-1-yl}-pyrimidine-5-carbaldehyde O-ethyl-oxime (anti-configuration for —C═N—O—)] |
| 11.1 |  | CC(C)Oc1ccc(NC(=O)N2CCN(c3ncnc(N)c3/C=N/OCC(=O)N3CCOCC3)CC2)cc1 [Example 16, 4-{6-Amino-5-[(2-morpholin-4-yl-2-oxo-ethoxyimino)-methyl]-pyrimidin-4-yl}-piperazine-1-carboxylic acid (4-isopropoxy-phenyl)-amide] |
| 2.6 |  | CO/N=C/c1c(N)ncnc1N1CCN(C(=O)Nc2ccc(N3CCCC3)cc2)CC1 [Example 18, 4-[6-Amino-5-(methoxyimino-methyl)-pyrimidin-4-yl]-piperazine-1-carboxylic acid (4-pyrrolidin-1-yl-phenyl)-amide] |
| 0.8 |  | CO/N=C/c1c(N)ncnc1N1CCN(C(=O)Nc2ccc(OC3CCCC3)nc2)CC1 [Example 17, 4-[6-Amino-5-(methoxyimino-methyl)-pyrimidin-4-yl]-piperazine-1-carboxylic acid (6-cyclopentyloxy-pyridin-3-yl)-amide] |
| 1.4 |  | CCO/N=C\c1c(N)ncnc1N1CCN(C(=O)Cc2ccc(C(C)C)cc2)CC1 [Example 14, 4-Amino-6-{4-[2-(4-isopropyl-phenyl)-acetyl]-piperazin-1-yl}-pyrimidine-5-carbaldehyde O-ethyl-oxime (syn-configuration for —C═N—O—)] |
| 7.4 |  | CO/N=C/c1c(N)ncnc1N1CCN(C(=O)Nc2ccc(Oc3ccccc3)cc2)CC1 [Example 21, 4-[6-Amino-5-(methoxyimino-methyl)-pyrimidin-4-yl]-piperazine-1-carboxylic acid (4-phenoxy-phenyl)-amide] |
| 7.76 |  | CCO/N=C/c1c(N)ncnc1N1CCN(C(=O)Nc2ccc(N3CCOCC3)cc2)CC1 [Example 15, 4-[6-Amino-5-(ethoxyimino-methyl)-pyrimidin-4-yl]-piperazine-1-carboxylic acid (4-morpholin-4-yl-phenyl)-amide] |
| 1.68 |  | CO/N=C/c1c(N)ncnc1N1CCN(C(=O)Nc2ccc(C3CCCCC3)cc2)CC1 [Example 19, 4-[6-Amino-5-(methoxyimino-methyl)-pyrimidin-4-yl]-piperazine-1-carboxylic acid (4-cyclohexyl-phenyl)-amide] |
| 11 |  | CCO/N=C\c1c(N)ncnc1N1CCN(C(=O)Nc2ccc(OC(C)C)cc2)CC1 [Example 10, 4-[6-Amino-5-(ethoxyimino-methyl)-pyrimidin-4-yl]-piperazine-1-carboxylic acid (4-isopropoxy-phenyl)-amide (syn-configuration for —C═N—O—)] |
| 2.6 | 0.0051 | CCO/N=C/c1c(N)ncnc1N1CCN(C(=O)Nc2ccc(N3CCCCC3)cc2)CC1 [Example 11, 4-[6-Amino-5-(ethoxyimino-methyl)-pyrimidin-4-yl]-piperazine-1-carboxylic acid (4-piperidin-1-yl-phenyl)-amide] |
| 15.6 |  | CO/N=C/c1c(N)ncnc1N1CCN(C(=O)Nc2ccc(Cl)cc2)CC1 [Example 20, 4-[6-Amino-5-(methoxyimino-methyl)-pyrimidin-4-yl]-piperazine-1-carboxylic acid (4-chloro-phenyl)-amide] |
